Experiment [1] deals with T1, Adenosine receptor A2b (Homo sapiens) (UniProt P29275).
T1 sequence (whole entry): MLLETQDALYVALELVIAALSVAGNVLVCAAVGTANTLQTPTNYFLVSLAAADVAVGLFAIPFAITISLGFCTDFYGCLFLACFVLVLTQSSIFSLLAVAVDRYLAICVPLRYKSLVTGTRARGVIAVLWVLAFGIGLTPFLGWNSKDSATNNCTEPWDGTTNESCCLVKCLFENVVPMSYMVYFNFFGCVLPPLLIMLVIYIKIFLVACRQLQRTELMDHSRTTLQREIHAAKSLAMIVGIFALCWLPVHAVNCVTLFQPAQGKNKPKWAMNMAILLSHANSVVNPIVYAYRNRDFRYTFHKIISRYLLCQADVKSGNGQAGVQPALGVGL
In words: Displacement of [3H]DPCPX from human adenosine A2B receptor expressed in HEK293 cells at 10 uM after 30 mins by liquid scintillation counting. The format is cell-based. A general note: In a radioligand displacement assay an active substance lowers the binding of a labelled ligand.

Experiment [2] has as its target T2, Adenosine receptor A3 (Homo sapiens) (UniProt P0DMS8).
T2 sequence (whole entry): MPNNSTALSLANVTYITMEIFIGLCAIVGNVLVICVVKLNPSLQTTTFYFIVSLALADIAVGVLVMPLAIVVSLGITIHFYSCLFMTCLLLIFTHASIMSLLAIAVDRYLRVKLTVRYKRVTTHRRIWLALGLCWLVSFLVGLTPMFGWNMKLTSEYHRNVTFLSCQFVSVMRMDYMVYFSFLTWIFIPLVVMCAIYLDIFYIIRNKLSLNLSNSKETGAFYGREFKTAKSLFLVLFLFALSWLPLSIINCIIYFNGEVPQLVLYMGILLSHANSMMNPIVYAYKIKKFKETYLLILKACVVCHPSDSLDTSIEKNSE
In words: Displacement of [3H]NECA from human adenosine A3 receptor expressed in HeLa cells at 10 uM after 30 mins by liquid scintillation counting. The class given is cell-based.

Experiment [3] concerns the target T3, Adenosine receptor A1 (Homo sapiens) (UniProt P30542).
T3 sequence (whole entry): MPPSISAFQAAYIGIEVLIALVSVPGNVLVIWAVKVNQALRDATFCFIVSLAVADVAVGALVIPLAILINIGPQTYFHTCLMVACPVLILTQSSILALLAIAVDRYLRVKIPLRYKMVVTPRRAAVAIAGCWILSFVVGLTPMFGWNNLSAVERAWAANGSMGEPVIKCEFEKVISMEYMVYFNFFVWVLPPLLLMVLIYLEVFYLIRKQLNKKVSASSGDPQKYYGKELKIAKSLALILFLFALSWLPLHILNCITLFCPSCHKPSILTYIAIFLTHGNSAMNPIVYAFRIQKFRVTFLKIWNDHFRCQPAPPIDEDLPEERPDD
Nature of the experiment: Displacement of [3H]DPCPX from human adenosine A1 receptor expressed in CHO cells at 10 uM after 60 mins by liquid scintillation counting. The format is cell-based.

Experiment [4] has as its target Adenosine receptor A2a (Homo sapiens) (UniProt P29274). In words: Displacement of [3H][…] from human adenosine A2A receptor expressed in HeLa cells at 10 uM after 30 mins by liquid scintillation counting. The class given is cell-based.
The next experiment addresses T4, Adenosine receptor A2b (Homo sapiens, UniProt P29275).
T4 sequence (P29275 whole entry): T1 sequence (whole entry)
Nature of the experiment: Displacement of [3H]DPCPX from human adenosine A2B receptor expressed in HEK293 cells after 30 mins by liquid scintillation counting. The format is cell-based.

For the next experiment, the species on record is Homo sapiens. In words: Selectivity ratio for human A2B adenosine receptor over human A3 adenosine receptor.

The source made the active and inactive calls. The calls are words filed in the database; no cut-off is given here.

Chain of Adenosine receptor A2a (Homo sapiens) (P29274 whole entry): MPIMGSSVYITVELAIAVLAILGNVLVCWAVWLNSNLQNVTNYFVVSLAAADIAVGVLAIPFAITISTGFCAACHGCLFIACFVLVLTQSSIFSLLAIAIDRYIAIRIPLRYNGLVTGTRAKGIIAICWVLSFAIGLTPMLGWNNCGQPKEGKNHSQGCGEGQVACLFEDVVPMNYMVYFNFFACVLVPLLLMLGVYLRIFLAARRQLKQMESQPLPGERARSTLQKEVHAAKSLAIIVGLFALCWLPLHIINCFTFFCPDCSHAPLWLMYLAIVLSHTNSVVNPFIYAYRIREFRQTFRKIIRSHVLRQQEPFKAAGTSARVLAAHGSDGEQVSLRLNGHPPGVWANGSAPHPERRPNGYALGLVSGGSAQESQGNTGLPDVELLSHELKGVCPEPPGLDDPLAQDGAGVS

`O=C(Nc1ccc(O)c(O)c1)c1cc(=O)c2ccccc2o1`: the result in experiment [1], in experiment [2], in experiment [3] and in experiment [4] was Active.
Usually Ki stands for a dissociation constant, usually derived from enzyme kinetics or from competition with a known ligand. Low readings indicate higher affinity, high ones lower affinity. On to `COc1ccc(NC(=O)c2coc3ccccc3c2=O)cc1O`, for which the Activity in experiment [1] is over 50%. For the same compound, the inhibitory constant (Ki) on Adenosine receptor A2b is 5.82 µM.
Take `O=C(Nc1ccccc1)c1cc(=O)c2ccccc2o1`: the outcome in experiment [1], in experiment [2], in experiment [3] and in experiment [4] was Active.
`O=C(Nc1ccc(O)c(O)c1)c1coc2ccccc2c1=O` gave an Activity in experiment [1] of over 50%. The compound further displayed an inhibitory constant (Ki) at Adenosine receptor A2b of 1.35 µM.
On to `O=C(Nc1ccc(O)cc1)c1cc(=O)c2ccccc2o1`, for which the result in experiment [1], in experiment [2], in experiment [3] and in experiment [4] was Active.
Turning to `COc1ccc(NC(=O)c2cc(=O)c3ccccc3o2)cc1O`, the result in experiment [1], in experiment [2], in experiment [3] and in experiment [4] was Active.
In the case of `O=C(Nc1ccccc1)c1coc2ccccc2c1=O`, in the experiment filed under Homo sapiens, the Selectivity ratio was 2. Besides, the Activity in experiment [1] is over 50%; in experiment [3] it was 3%; in experiment [4] it was 3%. The Ki at Adenosine receptor A2b came out at 8.51 µM.
For `COc1ccc(NC(=O)c2cc(=O)c3ccccc3o2)cc1OC`, the result in experiment [1], in experiment [2], in experiment [3] and in experiment [4] was Active.
Regarding `COc1ccc(NC(=O)c2coc3ccccc3c2=O)cc1OC`, the Activity in experiment [1] is over 50%. Moreover, on Adenosine receptor A2b, the affinity, expressed as Ki, was 6.39 µM.
As for `O=C(O)c1cc(=O)c2ccccc2o1`, the result in experiment [2] and in experiment [3] was Active.
Compound `O=C(Nc1ccc(O)cc1)c1coc2ccccc2c1=O` registered an Activity in experiment [1] of over 50%. At Adenosine receptor A2b, this compound came in with a Ki of 2.89 µM.

The values are drawn from ChEMBL document CHEMBL2040810, “In search for new chemical entities as adenosine receptor ligands: development of agents based on benzo-γ-pyrone skeleton” (Eur J Med Chem, 2012).
